Reference: patent US20060094744A1, “Pharmaceutical dosage forms of stable amorphous rapamycin like compounds” (priority 2004, published 2006)

Assay: Differential scanning calorimetry of amorphous sirolimus (glass transition temperature)
Format: physicochemical
Conditions: DSC, TA-Instruments Q1000 MTDSC, approximately 3 mg, heating rate 2° C./min; higher Tg is said to mean a more stable amorphous material
Description: In another test, the amorphous sirolimus is analyzed utilizing differential scanning calorimetry. Essentially, the purpose of this test is to determine the glass transition temperature of the amorphous sirolimus. In this test, approximately 3 mg of amorphous sirolimus is transferred into a standard aluminum TA-Instrument sample pan and covered. The DSC curve is recorded on a TA-Instruments Q1000 MTDSC equipped with a RCS cooling unit. FIG. 2 illustrates a differential scanning calorimetry curve of amorphous sirolimus.

In the case of `CO[C@H]1C[C@@H]2CC[C@@H](C)[C@@](O)(O2)C(=O)C(=O)N2CCCC[C@H]2C(=O)O[C@H]([C@H](C)C[C@@H]2CC[C@@H](O)[C@H](OC)C2)CC(=O)[C@H](C)/C=C(\C)[C@@H](O)[C@@H](OC)C(=O)[C@H](C)C[C@H](C)/C=C/C=C/C=C/1C` [amorphous sirolimus, (3S,6R,7E,9R,10R,12R,14S,15E,17E,19E,21 S,23S, 26R,27R,34aS)-9, 10, 12, 13, 14,21,22,23,24,25,26,27,32,33,34, 34a-hexadecahydro-9,27-dihydroxy-3-[(1R)-2-[(1S,3R,4R)-4-hydroxy-3-methoxycyclohexyl]-1-methylethyl]-10,21-dimethoxy-6,8,12,14,20,26-hexamethyl-23,27-epoxy-3H-pyrido[2,1-c][1,4] oxaazacyclohentriacontine-1,5,11,28,29(4H,6H,31H)-pentone], the glass transition temperature is reported as “about 93 °C”.
